Results: the kinase profiling compilation of Christmann-Franck et al. (2016)

Key:
Test in all cases: KINOMEscan competition binding
Details in all cases: compound 10.0 µM
CDK5 (human) = CDK5 (human) (UniProt Q00535)
RET (human) = RET (human) (UniProt P07949)
STK10 (human) = STK10 (human) (UniProt O94804)
WEE1 (human) = WEE1 (human) (UniProt P30291)
CDK2 (human) = CDK2 (human) (UniProt P24941)
[1] = tested on: ABL1 (human), P00519 [F317L]
MAP3K10 (human) = MAP3K10 (human) (UniProt Q02779)
SBK1 (human) = SBK1 (human) (UniProt Q52WX2)
ACVRL1 (human) = ACVRL1 (human) (UniProt P37023)
TLK2 (human) = TLK2 (human) (UniProt Q86UE8)
Sequence of TLK2 (human) (Q86UE8 whole entry, looked up): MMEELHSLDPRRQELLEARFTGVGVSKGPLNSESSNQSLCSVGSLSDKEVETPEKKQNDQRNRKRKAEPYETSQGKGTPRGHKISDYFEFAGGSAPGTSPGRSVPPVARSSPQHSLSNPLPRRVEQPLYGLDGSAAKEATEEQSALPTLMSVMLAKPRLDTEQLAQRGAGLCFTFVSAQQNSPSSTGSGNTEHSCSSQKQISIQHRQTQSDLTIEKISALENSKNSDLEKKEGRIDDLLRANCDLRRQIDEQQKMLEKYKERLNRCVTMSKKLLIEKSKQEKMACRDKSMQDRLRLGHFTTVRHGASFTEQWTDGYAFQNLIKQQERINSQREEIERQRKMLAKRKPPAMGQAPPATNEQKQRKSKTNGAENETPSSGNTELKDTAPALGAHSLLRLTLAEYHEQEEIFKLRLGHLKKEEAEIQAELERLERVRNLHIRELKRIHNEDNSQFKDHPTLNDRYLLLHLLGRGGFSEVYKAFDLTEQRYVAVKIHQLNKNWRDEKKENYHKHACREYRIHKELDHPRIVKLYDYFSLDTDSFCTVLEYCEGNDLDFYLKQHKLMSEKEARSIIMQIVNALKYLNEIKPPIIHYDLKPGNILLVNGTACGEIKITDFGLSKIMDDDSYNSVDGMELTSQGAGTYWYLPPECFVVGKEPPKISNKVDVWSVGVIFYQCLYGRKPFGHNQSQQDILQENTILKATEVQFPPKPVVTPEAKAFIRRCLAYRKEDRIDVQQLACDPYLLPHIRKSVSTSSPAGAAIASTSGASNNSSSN

NUAK1 (human) = NUAK1 (human) (UniProt O60285)
MYLK2 (human) = MYLK2 (human) (UniProt Q9H1R3)
MAP3K11 (human) = MAP3K11 (human) (UniProt Q16584)
[2] = tested on: PIK3CA (human), P42336 [H1047L]
MAPKAPK5 (human) = MAPKAPK5 (human) (UniProt Q8IW41)
EPHA5 (human) = EPHA5 (human) (UniProt P54756)
Sequence of EPHA5 (human) (P54756 whole entry, looked up): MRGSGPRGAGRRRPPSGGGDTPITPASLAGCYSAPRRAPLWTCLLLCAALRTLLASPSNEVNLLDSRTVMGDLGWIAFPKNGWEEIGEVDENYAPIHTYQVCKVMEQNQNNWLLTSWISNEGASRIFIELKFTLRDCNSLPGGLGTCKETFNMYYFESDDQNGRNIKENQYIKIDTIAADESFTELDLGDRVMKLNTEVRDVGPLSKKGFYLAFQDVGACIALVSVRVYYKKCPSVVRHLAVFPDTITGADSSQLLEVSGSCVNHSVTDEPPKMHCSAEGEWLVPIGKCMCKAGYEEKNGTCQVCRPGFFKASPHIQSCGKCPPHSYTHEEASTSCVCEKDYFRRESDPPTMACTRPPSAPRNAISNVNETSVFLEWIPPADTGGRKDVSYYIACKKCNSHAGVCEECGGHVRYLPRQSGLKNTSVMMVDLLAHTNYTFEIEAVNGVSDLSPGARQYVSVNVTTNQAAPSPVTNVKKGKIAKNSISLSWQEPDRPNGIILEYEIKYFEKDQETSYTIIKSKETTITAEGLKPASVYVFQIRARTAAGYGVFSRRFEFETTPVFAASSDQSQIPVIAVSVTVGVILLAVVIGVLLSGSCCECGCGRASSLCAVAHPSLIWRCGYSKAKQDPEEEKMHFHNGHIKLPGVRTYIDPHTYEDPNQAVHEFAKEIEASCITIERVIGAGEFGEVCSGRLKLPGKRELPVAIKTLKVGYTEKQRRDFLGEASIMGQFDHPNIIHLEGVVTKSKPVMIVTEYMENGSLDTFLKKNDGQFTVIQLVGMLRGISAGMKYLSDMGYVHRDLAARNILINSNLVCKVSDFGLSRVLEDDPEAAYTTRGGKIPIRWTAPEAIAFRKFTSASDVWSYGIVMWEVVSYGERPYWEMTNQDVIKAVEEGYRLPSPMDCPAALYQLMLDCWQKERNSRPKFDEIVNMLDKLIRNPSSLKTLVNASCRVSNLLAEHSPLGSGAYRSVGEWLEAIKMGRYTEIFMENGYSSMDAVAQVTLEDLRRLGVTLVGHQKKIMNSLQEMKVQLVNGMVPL

CLK1 (human) = CLK1 (human) (UniProt P49759)
AURKC (human) = AURKC (human) (UniProt Q9UQB9)
YSK4 (human) = YSK4 (human) (UniProt Q56UN5)
RIPK2 (human) = RIPK2 (human) (UniProt O43353)
SIK1 (human) = SIK1 (human) (UniProt P57059)
ABL1 (human) = ABL1 (human) (UniProt P00519)
Sequence of ABL1 (human) (P00519 whole entry, looked up): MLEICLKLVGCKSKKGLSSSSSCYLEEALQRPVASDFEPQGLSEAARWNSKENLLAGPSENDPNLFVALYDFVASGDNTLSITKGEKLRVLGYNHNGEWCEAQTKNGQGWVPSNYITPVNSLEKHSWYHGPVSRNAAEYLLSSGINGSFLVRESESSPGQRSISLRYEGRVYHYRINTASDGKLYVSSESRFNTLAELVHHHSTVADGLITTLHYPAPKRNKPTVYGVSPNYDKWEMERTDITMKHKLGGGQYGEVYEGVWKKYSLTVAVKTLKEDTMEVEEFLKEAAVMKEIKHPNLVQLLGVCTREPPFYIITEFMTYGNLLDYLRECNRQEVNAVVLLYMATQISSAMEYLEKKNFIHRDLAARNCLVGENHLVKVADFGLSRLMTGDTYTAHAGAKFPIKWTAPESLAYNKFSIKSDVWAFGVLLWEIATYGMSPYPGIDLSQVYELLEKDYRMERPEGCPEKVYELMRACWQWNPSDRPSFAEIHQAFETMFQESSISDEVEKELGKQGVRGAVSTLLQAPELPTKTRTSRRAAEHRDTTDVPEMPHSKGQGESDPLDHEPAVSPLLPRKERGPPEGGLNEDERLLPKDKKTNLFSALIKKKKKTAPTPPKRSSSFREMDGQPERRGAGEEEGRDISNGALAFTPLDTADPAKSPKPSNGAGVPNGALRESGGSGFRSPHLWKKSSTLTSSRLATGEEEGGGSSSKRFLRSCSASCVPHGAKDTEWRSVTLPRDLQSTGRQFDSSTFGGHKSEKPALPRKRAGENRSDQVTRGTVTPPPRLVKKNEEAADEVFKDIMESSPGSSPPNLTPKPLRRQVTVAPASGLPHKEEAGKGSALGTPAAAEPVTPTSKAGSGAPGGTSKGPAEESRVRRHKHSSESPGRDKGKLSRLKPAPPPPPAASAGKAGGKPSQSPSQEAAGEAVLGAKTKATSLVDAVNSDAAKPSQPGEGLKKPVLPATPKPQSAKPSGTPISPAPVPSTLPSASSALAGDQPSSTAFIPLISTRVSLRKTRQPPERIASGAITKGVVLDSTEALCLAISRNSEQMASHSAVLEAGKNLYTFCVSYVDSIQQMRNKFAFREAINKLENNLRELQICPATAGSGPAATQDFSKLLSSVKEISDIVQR

ZAP70 (human) = ZAP70 (human) (UniProt P43403)
[3] = tested on: PIK3CA (human), P42336 [E542K]
PIK3CA (human) = PIK3CA (human) (UniProt P42336)
Sequence of PIK3CA (human) (P42336 whole entry, looked up): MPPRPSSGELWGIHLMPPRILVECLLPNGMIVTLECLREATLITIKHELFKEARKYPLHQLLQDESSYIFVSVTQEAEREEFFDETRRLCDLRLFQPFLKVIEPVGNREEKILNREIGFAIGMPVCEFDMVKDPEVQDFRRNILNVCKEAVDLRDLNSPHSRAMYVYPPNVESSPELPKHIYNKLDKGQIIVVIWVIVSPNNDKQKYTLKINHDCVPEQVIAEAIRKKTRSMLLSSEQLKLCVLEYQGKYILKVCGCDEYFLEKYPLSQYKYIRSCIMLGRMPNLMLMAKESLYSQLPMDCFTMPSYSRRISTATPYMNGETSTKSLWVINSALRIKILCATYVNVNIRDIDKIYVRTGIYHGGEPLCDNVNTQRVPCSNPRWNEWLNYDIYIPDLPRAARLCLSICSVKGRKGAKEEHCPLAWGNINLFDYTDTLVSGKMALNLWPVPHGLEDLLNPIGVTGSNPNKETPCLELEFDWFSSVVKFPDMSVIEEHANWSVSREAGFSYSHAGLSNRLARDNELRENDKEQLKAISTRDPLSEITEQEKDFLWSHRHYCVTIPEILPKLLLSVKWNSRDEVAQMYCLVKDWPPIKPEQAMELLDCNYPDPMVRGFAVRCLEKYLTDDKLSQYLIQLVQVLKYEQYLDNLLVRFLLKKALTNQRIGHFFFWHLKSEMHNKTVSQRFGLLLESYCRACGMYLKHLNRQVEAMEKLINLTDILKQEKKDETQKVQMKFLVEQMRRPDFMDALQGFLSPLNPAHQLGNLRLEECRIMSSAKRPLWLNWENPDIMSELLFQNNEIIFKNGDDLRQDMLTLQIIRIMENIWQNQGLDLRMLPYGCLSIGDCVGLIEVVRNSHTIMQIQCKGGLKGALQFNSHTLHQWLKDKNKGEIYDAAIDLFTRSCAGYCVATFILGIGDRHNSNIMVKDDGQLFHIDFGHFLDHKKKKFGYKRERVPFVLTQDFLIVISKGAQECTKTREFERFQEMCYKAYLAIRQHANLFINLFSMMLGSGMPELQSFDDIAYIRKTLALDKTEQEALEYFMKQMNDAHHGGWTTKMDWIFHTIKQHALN

NEK2 (human) = NEK2 (human) (UniProt P51955)
SIK2 (human) = SIK2 (human) (UniProt Q9H0K1)
CAMK4 (human) = CAMK4 (human) (UniProt Q16566)
ULK2 (human) = ULK2 (human) (UniProt Q8IYT8)
Sequence of ULK2 (human) (Q8IYT8 whole entry, looked up): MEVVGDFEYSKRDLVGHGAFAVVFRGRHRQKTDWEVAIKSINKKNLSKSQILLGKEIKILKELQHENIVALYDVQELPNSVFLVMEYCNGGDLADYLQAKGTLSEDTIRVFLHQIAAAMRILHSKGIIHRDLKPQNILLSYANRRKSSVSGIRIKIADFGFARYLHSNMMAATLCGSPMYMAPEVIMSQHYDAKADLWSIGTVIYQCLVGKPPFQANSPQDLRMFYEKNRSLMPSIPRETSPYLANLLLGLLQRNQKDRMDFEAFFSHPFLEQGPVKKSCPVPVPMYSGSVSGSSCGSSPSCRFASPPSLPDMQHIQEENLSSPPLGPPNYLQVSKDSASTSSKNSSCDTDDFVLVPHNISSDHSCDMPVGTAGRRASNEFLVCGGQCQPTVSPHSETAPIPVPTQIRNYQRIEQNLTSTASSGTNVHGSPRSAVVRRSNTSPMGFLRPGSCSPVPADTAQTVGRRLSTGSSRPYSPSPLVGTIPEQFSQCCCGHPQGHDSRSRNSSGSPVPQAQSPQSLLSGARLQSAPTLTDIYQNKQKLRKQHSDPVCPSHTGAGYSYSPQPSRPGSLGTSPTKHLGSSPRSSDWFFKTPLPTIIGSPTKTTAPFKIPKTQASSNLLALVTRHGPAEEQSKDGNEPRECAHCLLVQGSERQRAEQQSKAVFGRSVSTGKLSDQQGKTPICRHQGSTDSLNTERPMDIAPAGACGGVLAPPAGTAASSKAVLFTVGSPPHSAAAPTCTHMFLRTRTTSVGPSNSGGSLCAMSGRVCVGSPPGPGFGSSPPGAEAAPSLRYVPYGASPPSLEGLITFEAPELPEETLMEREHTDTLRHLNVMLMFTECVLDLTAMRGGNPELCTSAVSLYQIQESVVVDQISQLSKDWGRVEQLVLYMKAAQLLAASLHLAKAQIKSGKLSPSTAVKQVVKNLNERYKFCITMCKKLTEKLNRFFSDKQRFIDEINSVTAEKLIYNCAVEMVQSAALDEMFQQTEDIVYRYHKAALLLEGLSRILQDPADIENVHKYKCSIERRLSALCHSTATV

RPS6KA5 KD2 (human) = RPS6KA5 KD2 (human) (UniProt O75582)
CDK3 (human) = CDK3 (human) (UniProt Q00526)
MAP3K3 (human) = MAP3K3 (human) (UniProt Q99759)
BRAF (human) = BRAF (human) (UniProt P15056)

Sequence of ABL1 (human), P00519 [F317L] (P00519 whole entry F317L, looked up): as the sequence (P00519 whole entry, looked up) above, with F317L counted along it

In the case of `CCOc1cc(N2CCC(O)CC2)ccc1Nc1ncc2c(n1)N(C)c1ccccc1C(=O)N2C`, the kinase still bound, per cent of control (CDK5 (human)) is reported as 100%, the kinase still bound, per cent of control (RET (human)) is reported as 100% and the kinase still bound, per cent of control (STK10 (human)) is reported as 100%. For the same compound, the kinase still bound, per cent of control (WEE1 (human)) was 100%, the kinase still bound, per cent of control (CDK2 (human)) was 100% and the kinase still bound, per cent of control [1] was 100%. The kinase still bound, per cent of control (MAP3K10 (human)) was 100%, the kinase still bound, per cent of control (SBK1 (human)) was 100% and the kinase still bound, per cent of control (ACVRL1 (human)) was 100%. For the same compound, the kinase still bound, per cent of control (TLK2 (human)) was 100%, the kinase still bound, per cent of control (NUAK1 (human)) was 100% and the kinase still bound, per cent of control (MYLK2 (human)) was 100%. For the same compound, the kinase still bound, per cent of control (MAP3K11 (human)) was 100%, the kinase still bound, per cent of control [2] was 100% and the kinase still bound, per cent of control (MAPKAPK5 (human)) was 100%. For the same compound, the kinase still bound, per cent of control (EPHA5 (human)) was 100%, the kinase still bound, per cent of control (CLK1 (human)) was 100% and the kinase still bound, per cent of control (AURKC (human)) was 100%. The kinase still bound, per cent of control (YSK4 (human)) was 100%, the kinase still bound, per cent of control (RIPK2 (human)) was 100% and the kinase still bound, per cent of control (SIK1 (human)) was 100%. It also gave a kinase still bound, per cent of control (ABL1 (human)) of 100%, a kinase still bound, per cent of control (ZAP70 (human)) of 100% and a kinase still bound, per cent of control [3] of 100%. It also gave a kinase still bound, per cent of control (PIK3CA (human)) of 100%, a kinase still bound, per cent of control (NEK2 (human)) of 100% and a kinase still bound, per cent of control (SIK2 (human)) of 100%. It also gave a kinase still bound, per cent of control (CAMK4 (human)) of 100%, a kinase still bound, per cent of control (ULK2 (human)) of 100% and a kinase still bound, per cent of control (RPS6KA5 KD2 (human)) of 100%. For the same compound, the kinase still bound, per cent of control (CDK3 (human)) was 100%, the kinase still bound, per cent of control (MAP3K3 (human)) was 100% and the kinase still bound, per cent of control (BRAF (human)) was 100%.

For `COc1cc(N2CCC(C(N)=O)CC2)ccc1Nc1nc(N)c(Cl)c(Nc2ccccc2S(=O)(=O)C(C)C)n1`, the kinase still bound, per cent of control (CDK5 (human)) was 100%, the kinase still bound, per cent of control (RET (human)) was 100% and the kinase still bound, per cent of control (STK10 (human)) was 100%. It also gave a kinase still bound, per cent of control (WEE1 (human)) of 100%, a kinase still bound, per cent of control (CDK2 (human)) of 100% and a kinase still bound, per cent of control [1] of 12%. The kinase still bound, per cent of control (MAP3K10 (human)) was 100%, the kinase still bound, per cent of control (ACVRL1 (human)) was 100% and the kinase still bound, per cent of control (TLK2 (human)) was 100%. It also gave a kinase still bound, per cent of control (NUAK1 (human)) of 100%, a kinase still bound, per cent of control (MYLK2 (human)) of 100% and a kinase still bound, per cent of control (MAP3K11 (human)) of 100%. The kinase still bound, per cent of control (MAPKAPK5 (human)) was 100%, the kinase still bound, per cent of control (EPHA5 (human)) was 100% and the kinase still bound, per cent of control (CLK1 (human)) was 0.7%. The kinase still bound, per cent of control (AURKC (human)) was 100%, the kinase still bound, per cent of control (RIPK2 (human)) was 100% and the kinase still bound, per cent of control (SIK1 (human)) was 100%. For the same compound, the kinase still bound, per cent of control (ABL1 (human)) was 100%, the kinase still bound, per cent of control (ZAP70 (human)) was 100% and the kinase still bound, per cent of control (PIK3CA (human)) was 100%. For the same compound, the kinase still bound, per cent of control (NEK2 (human)) was 100%, the kinase still bound, per cent of control (SIK2 (human)) was 100% and the kinase still bound, per cent of control (CAMK4 (human)) was 13%. It also gave a kinase still bound, per cent of control (ULK2 (human)) of 100%, a kinase still bound, per cent of control (RPS6KA5 KD2 (human)) of 100% and a kinase still bound, per cent of control (CDK3 (human)) of 100%. For the same compound, the kinase still bound, per cent of control (MAP3K3 (human)) was 100%.
